From PMC10145973, “Genomic Insights into Bacterial Resistance to Proline-Rich Antimicrobial Peptide Bac7” (Membranes, 2023)
In brackets after ≈: the same amount, converted by molar mass. Several values for one entry are separate records, joined by “and”; a condition that tells them apart may be missing. Identical values can stand only once. Like-named read-outs stand apart in the source and are kept apart here. Marks after values point to notes of the source that are not given here. Where a SMILES comes first, the peptide text is derived from it. Bridges are numbered along the chain shown (N, C = ends). [ ]: non-standard residue; d: D form. The star is where a group is joined. X1 = CC[C@H](C)CCCCC(=O)*; Dab = NCC[C@H](N)C(=O)O

Experiments:
[1] = system: septic shock-modelled rats; set-up: method as in PMID 12785015; conditions: comparable with polymyxin B; cited from earlier work
[2] = system: E. coli BW25113 ΔwaaP (pBAD-WaaP^N159H); conditions: complementation in BW25113 ΔwaaP, 0.1 g/L arabinose
E. coli MDR 1057 B3 = conditions: 24 h, 37 °C; for Minimum Inhibitory Concentration, B3: Table 2, broth microdilution in MHB (medium ±0.9% NaCl not given), 0.1% BSA, median of at least three independent experiments in triplicate
[3] = system: E. coli BW25113 ΔwaaP (waaP::kan, JW3605); assay: MIC, broth microdilution, waaP knockout; format: cell-based, Escherichia coli; conditions: 24 h, 37 °C
E. coli BW25113 WT = assay: MIC, broth microdilution, BW25113; format: cell-based, Escherichia coli; conditions: 24 h, 37 °C
E. coli MDR 1057 B1 = conditions: Fig. 3C, 24 h, 37 °C
[4] = system: E. coli BW25113 ΔsbmA (sbmA::kan, JW0368); assay: MIC, broth microdilution, sbmA knockout; format: cell-based, Escherichia coli; conditions: Fig. 3C, 24 h, 37 °C
E. coli MDR 1057 WT = conditions: 24 h, 37 °C; for Minimum Inhibitory Concentration, WT: Table 2, broth microdilution in MHB (medium ±0.9% NaCl not given), 10^6 CFU/mL suspension, agents diluted in 0.1% BSA, visible turbidity, median of at least three independent experiments in triplicate
E. coli MDR 1057 P1 = conditions: Table 2, broth microdilution in MHB (medium ±0.9% NaCl not given), 0.1% BSA, 24 h, 37 °C, median of at least three independent experiments in triplicate
E. coli MDR 1057 B2 = conditions: 24 h, 37 °C; for Minimum Inhibitory Concentration, B2: Table 2, broth microdilution in MHB (medium ±0.9% NaCl not given), 0.1% BSA, median of at least three independent experiments in triplicate
[5] = system: resistant Salmonella enterica strain (pmrB mutations); conditions: listed as PmxB; cited from earlier work
[6] = system: extensively drug-resistant Klebsiella pneumoniae isolate; set-up: method as in PMID 30445429; conditions: serially passaged in the presence of the agent; cited from earlier work
Mycobacterium phlei = system: Mycobacterium phlei; set-up: method as in PMID 35629841; conditions: cited from earlier work
[7] = system: Mycobacterium smegmatis mc(2)155; assay: MIC against Mycobacterium smegmatis (unpublished data); format: cell-based; conditions: authors' unpublished data
M. tuberculosis H37Rv = conditions: cited from earlier work
[8] = Fig. 3C and text, MHB +0.9% NaCl
[9] = selection in MHB without 0.9% NaCl

Bac7_1-35: Bac7 fragment 1-35 (RRIRPRPPRLPRPRPRPLPFPRPGPRPIPRPLPFP; Bactenecin-7; UniProt P19661 131-165, looked up, fragment)
plasma LPS levels and lethality rates [1]: significant decrease

CC[C@H](C)[C@H](NC(=O)[C@H](CCCNC(=N)N)NC(=O)[C@@H](N)CCCNC(=N)N)C(=O)N[C@@H](CCCNC(=N)N)C(=O)N1CCC[C@H]1C(=O)N[C@@H](CCCNC(=N)N)C(=O)N1CCC[C@H]1C(=O)N1CCC[C@H]1C(=O)N[C@@H](CCCNC(=N)N)C(=O)N[C@@H](CC(C)C)C(=O)N1CCC[C@H]1C(=O)N[C@@H](CCCNC(=N)N)C(=O)N1CCC[C@H]1C(=O)N[C@@H](CCCNC(=N)N)C(=O)N1CCC[C@H]1C(=O)N[C@@H](CCCNC(=N)N)C(=O)N1CCC[C@H]1C(=O)N[C@@H](CC(C)C)C(=O)N1CCC[C@H]1C(=O)N[C@@H](Cc1ccccc1)C(=O)N1CCC[C@H]1C(=O)N[C@@H](CCCNC(=N)N)C(=O)O [Bac7_1-22] (H-RRIRPRPPRLPRPRPRPLPFPR-OH)
increase in MICs for the strain expressing waaP^N159H as compared with the wild-type variant [2]: 4–8 fold
MIC, MHB +0.9% NaCl (E. coli MDR 1057 B3; Fig. 3C and text, MDR 1057 B3, MHB +0.9% NaCl): 32−64 μM
MIC, MHB (E. coli MDR 1057 B3; Fig. 3C and text, MDR 1057 B3, salt-free MHB): 32 µM
Minimum Inhibitory Concentration, B3 (E. coli MDR 1057 B3): >32 µM
MIC, MHB +0.9% NaCl [3, 8]: 1 µM (≈ 2.78 µg/mL)
MIC, MHB ([3]; Fig. 3C, salt-free MHB): 2 µM
MIC, MHB +0.9% NaCl (E. coli BW25113 WT; [8]): 1 µM (≈ 2.78 µg/mL)
MIC, MHB (E. coli BW25113 WT; Fig. 3C, salt-free MHB): 2 µM
MIC, MHB +0.9% NaCl (E. coli MDR 1057 B1; MHB +0.9% NaCl): 32 µM (≈ 89.1 µg/mL)
MIC, MHB (E. coli MDR 1057 B1; salt-free MHB): 1 µM
MIC, MHB +0.9% NaCl ([4]; MHB +0.9% NaCl): 16 µM (≈ 44.6 µg/mL)
MIC, MHB ([4]; salt-free MHB): 1 µM
increases in MIC values after initial 3-4 passages (E. coli MDR 1057 strain; selection in MHB + 0.9% NaCl, strains B1 and B2): ≥ 32 fold
increase in MICs after 4 weeks of selection, strain B3 (E. coli MDR 1057 strain; [9]): 32 fold
increase in MICs after 4 weeks of selection, strain B4 (E. coli MDR 1057 strain; [9]): 4 fold
increase in minimal inhibitory concentrations (MICs), three resistant strains (E. coli MDR 1057 strain; serial passaging, four-week experimental evolution (abstract)): ≥ 16 fold
MIC, MHB +0.9% NaCl (E. coli MDR 1057 WT; Fig. 3C, MDR 1057 WT, MHB +0.9% NaCl, median of ≥3 experiments): 2 µM (≈ 5.57 µg/mL)
MIC, MHB (E. coli MDR 1057 WT; Fig. 3C, MDR 1057 WT, salt-free MHB, median of ≥3 experiments): 1−2 μM
Minimum Inhibitory Concentration, P1 (E. coli MDR 1057 P1): 16 * µM
MIC, MHB +0.9% NaCl (E. coli MDR 1057 B2; Fig. 3C, MDR 1057 B2, MHB +0.9% NaCl): 32 µM (≈ 89.1 µg/mL)
MIC, MHB (E. coli MDR 1057 B2; Fig. 3C, MDR 1057 B2, salt-free MHB): 1 µM
Minimum Inhibitory Concentration, B2 (E. coli MDR 1057 B2): >32 µM

CC[C@H](C)CCCCC(=O)N[C@@H](CCN)C(=O)N[C@H](C(=O)N[C@@H](CCN)C(=O)N[C@H]1CCNC(=O)[C@H]([C@@H](C)O)NC(=O)[C@H](CCN)NC(=O)[C@H](CCN)NC(=O)[C@H](CC(C)C)NC(=O)[C@@H](Cc2ccccc2)NC(=O)[C@H](CCN)NC1=O)[C@@H](C)O [Polymyxin B] (X1-[Dab]T[Dab][Dab][Dab][dF]L[Dab][Dab]T; lactam 4-C (inferred); N-terminus assumed)
Minimum Inhibitory Concentration, B3 (E. coli MDR 1057 B3): 8 µM
final MIC relative to initial MIC, the P2 strain (E. coli MDR 1057 strain; PmxB selection): 32 × MIC
final MIC relative to initial MIC, the P1 strain (E. coli MDR 1057 strain; PmxB selection, MHB + 0.9% NaCl, 25 passages): 2048 × MIC
final MIC value, the P1 strain (E. coli MDR 1057 strain; PmxB selection, MHB + 0.9% NaCl, 25 passages, then three passages on drug-free agar): 128 µM
final MIC value, the P2 strain (E. coli MDR 1057 strain; PmxB selection, after final passage and three passages on drug-free agar): 2 µM
MIC at start of the selection experiment (E. coli MDR 1057 strain; both repetitions (P1 and P2), before selection): 0.0625 µM
Minimum Inhibitory Concentration, WT (E. coli MDR 1057 WT): 0.125 µM
MIC after a single pmrB mutation [5]: up to 3 µg/mL and ≤ 4 µM
increase in MIC after serial passage [6]: ≥ 1000 fold
Minimum Inhibitory Concentration, P1 (E. coli MDR 1057 P1; listed as PmxB): > 128 µM
Minimum Inhibitory Concentration, B2 (E. coli MDR 1057 B2): 0.125 µM

CC[C@H](C)[C@H](NC(=O)[C@H](CCCNC(=N)N)NC(=O)[C@@H](N)CCCNC(=N)N)C(=O)N[C@@H](CCCNC(=N)N)C(=O)N[C@@H](CCCNC(=N)N)C(=O)N1CCC[C@H]1C(=O)N[C@@H](CCCNC(=N)N)C(=O)N[C@@H](CC(C)C)C(=O)N1CCC[C@H]1C(=O)N[C@@H](CCCNC(=N)N)C(=O)N1CCC[C@H]1C(=O)N[C@@H](CCCNC(=N)N)C(=O)N[C@H](C(=O)N1CCC[C@H]1C(=O)N[C@@H](CCCNC(=N)N)C(=O)N1CCC[C@H]1C(=O)N[C@@H](CCCNC(=N)N)C(=O)N[C@H](C(=O)N1CCC[C@H]1C(=O)N1CCC[C@H]1C(=O)N[C@@H](CCCNC(=N)N)C(=O)N[C@H](C(=O)N1CCC[C@H]1C(=O)N[C@@H](CCCNC(=N)N)C(=O)N1CCC[C@H]1C(=O)N[C@H](C(=O)N[C@@H](CC(C)C)C(=O)N1CCC[C@H]1C(=O)N1CCC[C@H]1C(=O)N1CCC[C@H]1C(=O)N[C@@H](CCCNC(=N)N)C(=O)N[C@H](C(=O)N1CCC[C@H]1C(=O)N[C@@H](Cc1ccccc1)C(=O)N1CCC[C@H]1C(=O)N[C@@H](CCCNC(=N)N)C(=O)N[C@@H](Cc1ccccc1)C(=O)N1CCC[C@H]1C(=O)N[C@@H](CCCNC(=N)N)C(N)=O)C(C)C)C(C)C)[C@@H](C)CC)[C@@H](C)CC)C(C)C [VicBac] (H-RRIRRPRLPRPRVPRPRIPPRIPRPVLPPPRVPFPRFPR-NH2; N-terminus assumed)
Minimum Inhibitory Concentration, B3 (E. coli MDR 1057 B3): 2 µM
MIC (Mycobacterium phlei): 0.5 to 1 µM
MIC [7]: 0.5 to 1 µM
Minimum Inhibitory Concentration, WT (E. coli MDR 1057 WT): 1 µM
Minimum Inhibitory Concentration, P1 (E. coli MDR 1057 P1): 4 µM
Minimum Inhibitory Concentration, B2 (E. coli MDR 1057 B2): 2 µM

PR-39
concentration inhibiting growth (M. tuberculosis H37Rv): about 10 µM
